US20240383904A1, “HETEROCYCLIC COMPOUNDS” (Hoffmann-La Roche Inc., priority 2021, published 2024)

The compounds below were run against T1, MAGL (Homo sapiens, UniProt Q99685) (assay: 2-AG assay: MAGL inhibitory activity by hydrolysis of 2-arachidonoylglycerol to arachidonic acid, followed by mass spectrometry). Conditions: 15 min preincubation, 30 min reaction at RT, 8 μM 2-arachidonoylglycerol.
T1 sequence (Q99685 1-303): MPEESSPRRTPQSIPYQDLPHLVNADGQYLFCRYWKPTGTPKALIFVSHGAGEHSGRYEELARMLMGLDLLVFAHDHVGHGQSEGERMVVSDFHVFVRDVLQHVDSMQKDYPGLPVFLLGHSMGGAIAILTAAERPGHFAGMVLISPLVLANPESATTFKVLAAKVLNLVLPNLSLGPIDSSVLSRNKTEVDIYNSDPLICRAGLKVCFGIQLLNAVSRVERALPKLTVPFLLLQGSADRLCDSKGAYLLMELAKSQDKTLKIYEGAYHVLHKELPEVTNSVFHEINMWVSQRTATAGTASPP
Type: biochemical

Structure (SMILES) | IC50 [nM]
O=C1CCC2(CN(C(=O)N3CC4(CN(Cc5ccc(C(F)(F)F)cc5F)C4)C3)C2)N1 [Example 361, 2-[6-[2-fluoro-4-(trifluoromethyl)benzyl]-2,6-diazaspiro[3.3]heptane-2-carbonyl]-2,5-diazaspiro[3.4]octan-6-one] | 5.8
O=C1CCC2(CN(C(=O)N3CC4(CC[C@@H](Cc5cccc(S(=O)(=O)C(F)(F)F)c5)C4)C3)C2)N1 [Example 224, 2-[(6S)-6-(3-triflylbenzyl)-2-azaspiro[3.4]octane-2-carbonyl]-2,5-diazaspiro[3.4]octan-6-one] | 0.23
O=C1NC2(CO1)CN(C(=O)N1CC3(CCC(Cc4ccc(C(F)(F)F)cn4)CC3)C1)C2 [Example 61, 2-[7-[[5-(trifluoromethyl)-2-pyridyl]methyl]-2-azaspiro[3.5]nonane-2-carbonyl]-7-oxa-2,5-diazaspiro[3.4]octan-6-one] | 0.19
O=C1NC2(CO1)CN(C(=O)N1CC3(CCC(Oc4ccc(C(F)(F)F)nn4)CC3)C1)C2 [Example 47, 2-[7-[6-(trifluoromethyl)pyrida-zin-3-y1]oxy-2-azaspiro[3.5]nonane-2-carbonyl]-7-oxa-2,5-diazaspiro[3.4]octan-6-one] | 2.94
Cn1ncc(C(F)(F)F)c1CC1CC2(C1)CN(C(=O)N1CC3(CCCC(=O)N3)C1)C2 [Example 277, 2-[6-[[2-methyl-4-(trifluoromethyl)pyrazol-3-yl]methyl]-2-azaspiro[3.3]heptane-2-carbonyl]-2,5-diazaspiro[3.5]nonan-6-one] | 195
O=C1CCC2(CN(C(=O)N3CC4(CC(Cc5ccc(S(=O)(=O)C6CC6)cc5)C4)C3)C2)N1 [Example 215, 2-[6-[(4-cyclopropylsulfonylphe-nyl)methyl]-2-azaspiro[3.3]heptane-2-carbonyl]-2,5-diazaspiro[3.4]octan-6-one] | 3.2
O=C1NC2(CO1)CN(C(=O)N1CC3(CC(c4ccc(F)cc4)C3)C1)C2 [Example 115, 2-[6-(4-fluorophenyl)-2-azaspiro[3.3]heptane-2-carbonyl]-7-oxa-2,5-diazaspiro[3.4]octan-6-one] | 1.02
N=[S@](=O)(c1cccc(CC2CC3(C2)CN(C(=O)N2CC4(CCCC(=O)N4)C2)C3)c1)C(F)(F)F [Example 293, 2-[6-[[3-(trifluoromethylsulfoni-midoyl)phenyl]methyl]-2-azaspiro[3.3]heptane-2-carbonyl]-2,5-diazaspiro[3.5]nonan-6-one] | 69.4
CS(=O)(=O)c1cc(CC2CC3(C2)CN(C(=O)N2CC4(COCC(=O)N4)C2)C3)cc(C(F)(F)F)c1 [Example 238, 2-[6-[[3-methylsulfonyl-5-(trifluoromethyl)phenyl]methyl]-2-azaspiro[3.3]heptane-2-carbonyl]-8-oxa-2,5-diazaspiro[3.5]nonan-6-one] | 16.5
O=C1CCC2(CN(C(=O)N3CC4(CC(Cc5nc(C(F)(F)F)cs5)C4)C3)C2)N1 [Example 319, 2-[6-[[4-(trifluoromethyl)thiazol-2-yl]methyl]-2-azaspiro[3.3]heptane-2-carbonyl]-2,5-diazaspiro[3.4]octan-6-one] | 12.4
O=C1NC2(CO1)CN(C(=O)N1CC3(CC(Cc4cnc(C(F)(F)F)nc4)C3)C1)C2 [Example 32, 2-[6-[[2-(trifluoromethyl)pyrimi-din-5-y1]methyl]-2-azaspiro[3.3]heptane-2-carbonyl]-7-oxa-2,5-diazaspiro[3.4]octan-6-one] | 0.67
N#Cc1cnn(CC2CC3(C2)CN(C(=O)N2CC4(CCC(=O)N4)C2)C3)c1 [Example 247, 1-[[2-(6-oxo-2,5-diazaspiro[3.4]octane-2-carbonyl)-2-azaspiro[3.3]heptan-6-yl]methyl]pyrazole-4-carbonitrile] | 311
NC(=O)c1cc(CC2CC3(C2)CN(C(=O)N2CC4(COC(=O)N4)C2)C3)ccc1OC(F)(F)F [Example 245, 5-[[2-(6-oxo-7-oxa-2,5-diazaspiro[3.4]octane-2-carbonyl)-2-azaspiro[3.3]heptan-6-yl]methyl]-2-(trifluoromethoxy)benz-amide] | 1.51
O=C1NC2(CO1)CN(C(=O)N1CC3(CC(NCc4ccc(C(F)(F)F)cc4F)C3)C1)C2 [Example 94] | 1.08
O=C1NC2(CO1)CN(C(=O)N1CC3(CC(Cc4ccc(C(F)(F)F)cn4)C3)C1)C2 [Example 354, 2-[6-[[5-(trifluoromethyl)-2-pyridyl]methyl]-2-azaspiro[3.3]heptane-2-carbonyl]-7-oxa-2,5-diazaspiro[3.4]octan-6-one] | 0.28
CS(=O)(=O)c1cc(F)ccc1CC1CC2(C1)CN(C(=O)N1CC3(COCC(=O)N3)C1)C2 [Example 147, 2-[6-(4-fluoro-2-mesyl-benzyl)-2-azaspiro[3.3]heptane-2-carbonyl]-8-oxa-2,5-diazaspiro[3.5]nonan-6-one] | 23.2

Now from value to compound:

IC50 [nM] | Structure (SMILES)
88.2 | O=C1CCC2(CN(C(=O)N3CC4(CN(Cc5snnc5C5CCC5)C4)C3)C2)N1 [Example 334, 2-[6-[(4-cyclobutylthiadiazol-5-yl)methyl]-2,6-diazaspiro[3.3]heptane-2-carbonyl]-2,5-diazaspiro[3.4]octan-6-one]
2.89 | N=[S@@](=O)(c1ccc(CC2CC3(C2)CN(C(=O)N2CC4(CCC(=O)N4)C2)C3)cc1)C(F)(F)F [Example 286, 2-[6-[[4-(trifluoromethylsulfoni-midoyl)phenyl]methyl]-2-azaspiro[3.3]heptane-2-carbonyl]-2,5-diazaspiro[3.4]octan-6-one]
0.74 | O=C1CCC2(CN(C(=O)N3CC4(CCC(Cc5ccc(C(F)(F)F)cn5)CC4)C3)C2)N1 [Example 60, 2-[7-[[5-(trifluoromethyl)-2-pyridyl]methyl]-2-azaspiro[3.5]nonane-2-carbonyl]-2,5-diazaspiro[3.4]octan-6-one]
5.58 | O=C1CCC2(CN(C(=O)N3CC4(CCN(Cc5ccc(S(=O)(=O)C(F)(F)F)cc5)CC4)C3)C2)N1 [Example 82, 2-[7-(4-triflylbenzyl)-2,7-diazaspiro[3.5]nonane-2-carbonyl]-2,5-diazaspiro[3.4]octan-6-one]
142 | O=C1NCC2(CN(C(=O)N3CCC4(CC3)CN(Cc3ccc(C(F)(F)F)cc3F)C4)C2)N1 [Example 93, 2-[2-[2-fluoro-4-(trifluoromethyl)benzyl]-2,7-diazaspiro[3.5]nonane-7-carbonyl]-2,5,7-triazaspiro[3.4]octan-6-one]
104 | Cn1nc(CC2CC3(C2)CN(C(=O)N2CC4(CCCC(=O)N4)C2)C3)cc1C(F)(F)F [Example 275, 2-[6-[[1-methyl-5-(trifluoromethyl)pyrazol-3-yl]methyl]-2-azaspiro[3.3]heptane-2-carbonyl]-2,5-diazaspiro[3.5]nonan-6-one]
0.32 | N=[S@](=O)(c1ccc(CC2CC3(C2)CN(C(=O)N2CC4(COC(=O)N4)C2)C3)cc1)C(F)(F)F [Example 359]
51.5 | O=C1NC2(CO1)CN(C(=O)N1CC3(CN(Cc4cnc(C(F)(F)F)nc4)C3)C1)C2 [Example 161, 2-[6-[[2-(trifluoromethyl)pyrimi-din-5-yl]methyl]-2,6-diazaspiro[3.3]heptane-2-carbonyl]-7-oxa-2,5-diazaspiro[3.4]octan-6-one]
0.83 | O=C1NC2(CO1)CN(C(=O)N1CC3(CCC(Oc4cnc(C(F)(F)F)cn4)CC3)C1)C2 [Example 69, 2-[7-[5-(trifluoromethyl)pyrazin-2-yl]oxy-2-azaspiro[3.5]nonane-2-carbonyl]-7-oxa-2,5-diazaspiro[3.4]octan-6-one]
